The values that follow come from publication PMC12679550 (ACS Chemical Neuroscience, 2025).

What is called Kb is the equilibrium dissociation constant of an antagonist, usually derived from a functional assay. A word on the EC50: it is the concentration that produces a half-maximal response.

The subject of assay [1] is pERK in nontransfected HEK293 cells. The assay can be described thus: ERK phosphorylation in nontransfected, knockout and antagonist-cotreated HEK293 cells. The assay is classed as cell-based, human. On the procedure:
Cells were serum-starved for 75 min and treated with ligands in 1 mL of fresh DMEM in the absence of serum as described in the figure legends. Cells were washed three times with ice-cold phosphate-buffered saline, lysed on ice in Radio-Immunoprecipitation Assay buffer, centrifuged to clarify the supernatant, normalized to protein concentration, and boiled in Laemmli sample buffer. Following sodium dodecyl sulfate–polyacrylamide gel electrophoresis, gels were transferred, blocked in 5% BSA and incubated with 1:1000 rabbit phospho-ERK1/2 (#9101, Cell Signaling Technology, Danvers, MA) and imaged with enhanced chemiluminescence (ECL). Blots were stripped and reprobed with rabbit ERK1/2 (#9102, Cell Signaling Technology) antibody and imaged with ECL to assess protein loading.

Assay [2] addresses T1, α2AR (Homo sapiens, UniProt P08913).
T1 sequence (P08913 1-465): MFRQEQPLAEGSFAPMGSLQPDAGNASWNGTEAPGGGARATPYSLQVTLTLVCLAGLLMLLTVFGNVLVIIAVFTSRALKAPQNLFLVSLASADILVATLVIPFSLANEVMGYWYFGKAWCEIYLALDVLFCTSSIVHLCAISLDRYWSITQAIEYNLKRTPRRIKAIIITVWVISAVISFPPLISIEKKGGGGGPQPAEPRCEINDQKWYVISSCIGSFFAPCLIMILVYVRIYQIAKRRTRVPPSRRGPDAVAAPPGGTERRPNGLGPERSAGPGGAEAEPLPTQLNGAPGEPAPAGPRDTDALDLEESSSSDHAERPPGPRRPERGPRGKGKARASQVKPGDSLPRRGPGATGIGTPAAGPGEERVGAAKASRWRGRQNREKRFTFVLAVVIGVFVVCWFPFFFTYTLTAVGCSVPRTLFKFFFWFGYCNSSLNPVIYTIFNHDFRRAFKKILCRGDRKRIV

Assay [3] deals with T2, α1AR (Homo sapiens, UniProt P35348).
T2 sequence (P35348 1-466): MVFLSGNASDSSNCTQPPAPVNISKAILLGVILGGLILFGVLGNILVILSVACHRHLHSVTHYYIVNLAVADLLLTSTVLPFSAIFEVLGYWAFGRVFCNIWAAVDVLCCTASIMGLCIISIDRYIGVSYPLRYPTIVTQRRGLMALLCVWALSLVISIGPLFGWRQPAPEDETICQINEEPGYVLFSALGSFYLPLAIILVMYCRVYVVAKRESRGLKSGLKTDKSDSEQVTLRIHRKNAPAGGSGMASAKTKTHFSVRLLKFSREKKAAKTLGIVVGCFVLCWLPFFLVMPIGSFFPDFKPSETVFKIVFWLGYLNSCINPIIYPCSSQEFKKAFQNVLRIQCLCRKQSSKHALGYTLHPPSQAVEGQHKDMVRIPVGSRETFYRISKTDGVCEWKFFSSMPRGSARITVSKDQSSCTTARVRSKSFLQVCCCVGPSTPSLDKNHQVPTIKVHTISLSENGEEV

Like-named read-outs stand apart in the source and are kept apart here.

Take mitragynine: the “pERK-stimulating effect in Gαq/11 knockout HEK293 cells” value in assay [1] (1 μM, 5 min, vs CRISPR scrambled) is “abolished”. Besides, the “pERK-stimulating effect with 100 nM atipamezole cotreatment” value in assay [1] (HEK293) is listed as “did not affect”. In addition, in assay [1] (HEK293, CLON and ISO 1 μM, mitragynine 1 μM), the “pERK-stimulating effect with 100 nM prazosin cotreatment” value is given as “abolished”. The “Effect on forskolin-stimulated cAMP, human α2AR” value in assay [2] (agonist mode, CHO-K1 cells) is “did not impact forskolin-stimulated cAMP accumulation”. Moreover, the Kb in assay [2] (read-out: Kb, antagonist, cAMP, human α2AR, antagonism of clonidine, Gaddum-Schild analysis of first plateau) stood at 4.17 µM. For the same substance, the EC50 in assay [3] (read-out: EC50, α11, α1AR-Gα11) is 3.16 µM; in assay [3] (read-out: EC50 at α1AR-Gα11 (abstract), partial agonist) it was around 3 µM. The “Emax as percent of clonidine's maximum response, α11” value in assay [3] (α1AR-Gα11) came out at 27%. Besides, in assay [3] (α1AR-Gαq), the “EC50, αq” value is “inactive”.
